Test system: mouse IL-13 mRNA in primary LN cells
Experiment: Validation: mouse IL-13 mRNA by real-time PCR in LN cells of GA-immunized SJL/J mice (Example IV)
Type: cell-based
Conditions: for induction of IL-13 mRNA: 20 μg/mL, 6 hours; for IL-13 mRNA Fold Change: normalized to GAPDH
Experimental: Three experiments were conducted using one batch of GA (Mylan GMA). The primary LN cells were stimulated by incubation with 6 concentrations (0.3 to 20 μg/mL) of the GA for 6 hours at 37° C. Total RNA was isolated from LN cells stimulated with GA or controls. cDNA was synthesized from the RNA and the mRNA levels of seven mouse cytokines, IL-2, IL-4, IL-5, IL-10, IL-13, interferon (IFN)-γ and tumor necrosis factor (TNF)-α, were quantitatively measured by a real-time PCR method.
Female SJL/J mice at 8-9 weeks of age were immunized by injection into four footpads using a 1 mL syringe with a 27-G, ½-inch needle. Each mouse received a total injection volume of 0.1 mL of GMA emulsified in CFA (about 10 μL into each of the front footpads and 40 μL into each of the hind footpads). Animals were immunized on Day 0. After injection, animals were placed back in their cages and housed ≤6 animals per cage.
Immunized animals were sacrificed by cervical dislocation on Day 10 following immunization. […] After centrifugation at about 200×g for 10 minutes at 4° C., the cell pellet was re-suspended in 40 mL of DCCM-1 medium for cell counting. A Trypan blue exclusion method was used to determine the cell density of viable cells in the suspension. After cell counting, the LN cells were suspended in enriched DCCM-1 medium at density of 7.5×10^6 cells/mL. LN cells (0.12 mL) were plated into each well of 96-well tissue culture plates.
Dilutions of GA (Mylan GMA) were prepared using enriched DCCM-1 medium as the diluent. GA dilutions (0.12 mL) were added in the assigned wells of 96-well tissue culture plates. The same volume of LN cells (0.12 mL) isolated from immunized animals was added to the assigned wells. A positive control and a negative control were always performed in the same assay by treating LN cells with 2.5 μg/mL ConA and 10 μg/mL MBP, respectively. The LN cells with mock stimulation protocols (enriched DCCM-1 medium) were used to monitor the background mRNA level of a cytokine. The plates were incubated at 37° C. in a humidified 5% CO2 incubator for 6 hr.
At the end of incubation time, culture medium from stimulated cells was removed by aspiration and the cells were lysed using Qiagen or Promega lysis buffer. The lysate was transferred to an RNeasy Mini column (Qiagen) or wells of the SV 96 Binding Plate (Promega) for RNA isolation and cDNA synthesis. All tested samples were run in triplicate.
The SV 96 Total RNA Isolation System (Promega; Cat. No. Z3505) was used for total RNA isolation. Assay procedures were carried out according to each manufacturer's protocol. RNA samples were stored at −70° C. until use. […] The assay procedure was carried out according to the manufacturer's protocol.
The plate was centrifuged at 2000 rpm for 2 minutes at 4° C. to spin down the contents and eliminate air bubbles. Samples were prepared and run in a 96-well plate using a Life Technologies Real-Time PCR system (previously Applied Biosystems; Model No. 7500) according to the manufacturer's recommendation. The mix for the reference gene was prepared in the same way using the reference gene primer.
A relative quantitation method was used to analyze changes in mIL-2, mIL-4, mIL-5, mIL-10, mIL-13, mIFN-γ and TNF-α expression in GA treated samples relative to the untreated control (Enriched DCCM-1 treated) samples using the following program:
Levels of mouse cytokine amplicons were normalized to an internal probe level (GAPDH) from the same samples. The following equations were used to calculate the relative increase in response to GA stimulation compared to the control sample (Enriched DCCM1 sample): […]

Molecule: L-glutamic acid polymer with L-alanine, L-lysine and L-tyrosine, acetate (salt) [GA]
- induction of IL-13 mRNA (SJL/J, Exp 1): 17.6 fold
- induction of IL-13 mRNA (SJL/J, Exp 2): 21.3 fold
- induction of IL-13 mRNA (SJL/J, Exp 3): 33.9 fold
- induction of IL-13 mRNA (in words) (SJL/J, different concentrations of GA vs unstimulated LN cells): robust induction

Molecule: Concanavalin A [ConA, reference compound]
- IL-13 mRNA Fold Change (Experiment 1, 2.5 μg/mL): 40.9 fold
- IL-13 mRNA Fold Change (Experiment 2, 2.5 μg/mL): 32.4 fold
- IL-13 mRNA Fold Change (Experiment 3, 2.5 μg/mL): 50.9 fold

B1: MBP: myelin basic protein, a negative control (protein, UniProt P02686 1-304, looked up)
Myelin basic protein: MGNHAGKRELNAEKASTNSETNRGESEKKRNLGELSRTTSEDNEVFGEADANQNNGTSSQDTAVTDSKRTADPKNAWQDAHPADPGSRPHLIRLFSRDAPGREDNTFKDRPSESDELQTIQEDSAATSESLDVMASQKRPSQRHGSKYLATASTMDHARHGFLPRHRDTGILDSIGRFFGGDRGAPKRGSGKDSHHPARTAHYGSLPQKSHGRTQDENPVVHFFKNIVTPRTPPPSQGKGRGLSLSRFSWGAEGQRPGFGYGGRASDYKSAHKGFKGVDAQGTLSKIFKLGGRDSRSGSPMARR
- IL-13 mRNA Fold Change (Experiment 1, 10 μg/mL): 0.9 fold
- IL-13 mRNA Fold Change (Experiment 2, 10 μg/mL): 1.4 fold
- IL-13 mRNA Fold Change (Experiment 3, 10 μg/mL): 1.2 fold
- IL-13 mRNA expression level in response to MBP treatment (SJL/J, MBP 10 μg/mL, all PCR runs): ≤ 2 fold

— patent US10344330B2, “Glatiramer acetate response biomarker mRNA potency assay” (Mylan Inc., priority 2013, dated 2019)
